# Data as given in patent US20080108513A1, “Cellular Arrays” (Northwestern University, priority 2006, published 2008).
# Biological target: T1, ERα (Homo sapiens, UniProt P03372)
# T1 sequence (P03372 1-595): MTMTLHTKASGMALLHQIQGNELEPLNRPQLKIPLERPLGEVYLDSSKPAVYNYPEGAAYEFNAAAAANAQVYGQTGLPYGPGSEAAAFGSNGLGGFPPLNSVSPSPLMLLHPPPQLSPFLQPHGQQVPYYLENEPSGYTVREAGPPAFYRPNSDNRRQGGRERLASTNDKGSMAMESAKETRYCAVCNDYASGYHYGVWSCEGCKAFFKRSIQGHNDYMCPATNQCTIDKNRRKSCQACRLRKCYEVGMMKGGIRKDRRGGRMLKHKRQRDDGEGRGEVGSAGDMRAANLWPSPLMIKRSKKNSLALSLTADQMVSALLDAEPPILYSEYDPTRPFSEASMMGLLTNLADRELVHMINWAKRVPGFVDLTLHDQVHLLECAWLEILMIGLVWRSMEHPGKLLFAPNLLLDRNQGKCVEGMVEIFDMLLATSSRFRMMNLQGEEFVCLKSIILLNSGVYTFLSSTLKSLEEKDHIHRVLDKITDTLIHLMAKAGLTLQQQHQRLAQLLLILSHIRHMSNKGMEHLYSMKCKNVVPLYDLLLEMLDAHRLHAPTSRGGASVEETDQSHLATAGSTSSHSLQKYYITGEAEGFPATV
structure (smiles),measurement,setting,value
"C[C@]12CC[C@@H]3c4ccc(O)cc4C[C@@H](CCCCCCCCC[S+]([O-])CCCC(F)(F)C(F)(F)F)[C@H]3[C@@H]1CC[C@@H]2O (some centres unmarked) [FUL, fulvestrant]",blockade of ERα-stimulated activity by E2,"10^−6 M FUL with 10^−9 M E2, MCF-7 cells on array",complete blockade
same,effect on expression of the pLUC plasmid (CMV promoter),"MCF-7 cells on array, 10^−9 M E2 or 10^−9 M E2+10^−6 M FUL",lowered
